Entries after “also recorded” stand apart in the source; their conditions may differ. Where two headings read alike, the source gives them in different places.
Legend:
[1] = MTX/GLPG3970 DDI study: plasma pharmacokinetics; assay type: in vivo, human; settings: for Intra‐participant variability of AUC0–∞ and C max: MTX/GLPG3970 DDI study; for AUC(0-inf): AUC0–∞
[2] = system: breast cancer resistance protein (BCRP); settings: at clinically relevant concentrations; ref unpublished data; cited from earlier work
[3] = cited from earlier work
[4] = cited from earlier work; remark: listed apart in the source
[5] = SSZ/GLPG3970 DDI study: plasma pharmacokinetics; assay type: in vivo, human; settings: for AUC(0-t) / AUC(0-inf) / Cmax: human, plasma, oral, geometric LS mean (95% CI); for AUC(0-t): AUC0–t; for AUC(0-inf): AUC0–∞; for Cmax: C max
[6] = Day 5 (GLPG3970 + MTX) vs. day 1 (MTX alone)
[7] = GLPG3970 350 mg + MTX 7.5 mg, Day 5 (n = 14)
[8] = MTX 7.5 mg alone, Day 1 (n = 15)
[9] = Day 5 (GLPG3970 + SSZ) vs. day 1 (SSZ alone)
[10] = Day 9 (GLPG3970 2 h after SSZ) vs. day 1 (SSZ alone)
[11] = 1000 mg, SSZ 1,000 mg alone, Day 1 (n = 8)
[12] = GLPG3970 350 mg 2 h after SSZ 1,000 mg, Day 9 (n = 7)
[13] = GLPG3970 350 mg + SSZ 1,000 mg, Day 5 (n = 7)

SMILES: CN(Cc1nc2c(N)nc(N)nc2[nH]c1=O)c1ccc(C(=O)N[C@@H](CCC(=O)O)C(=O)O)cc1 [7‐OH‐MTX, 7‐hydroxy‐methotrexate]
- AUC0–t, geometric LS mean ratio (90% CI) [1, 6]: 80 (69, 92) %
- C max, geometric LS mean ratio (90% CI) [1, 6]: 77 (72, 82) %
- AUC0–t, geometric LS mean (95% CI) [1, 7]: 392 (332, 463) ng.h/mL
- C max, geometric LS mean (95% CI) [1, 7]: 27.0 (23.9, 30.4) ng/mL
- AUC0–t, geometric LS mean (95% CI) [1, 8]: 490 (418, 576) ng.h/mL
- C max, geometric LS mean (95% CI) [1, 8]: 35.0 (31.1, 39.4) ng/mL
- Reduction in AUC0–t ([1]; MTX + GLPG3970 vs. MTX alone): 20%
- Reduction in C max ([1]; MTX + GLPG3970 vs. MTX alone): 23%
- Reduction in exposure ([1]; MTX + GLPG3970 vs. MTX alone): 20–23%
- Intra‐participant variability of AUC0–∞ and C max [1]: 10–22%

SMILES: COc1cc(-c2cnc3cc(OCCN4CCOCC4)ccn23)cc2c1C(=O)N(CC(F)(F)F)CC2 [GLPG3970]
- Inhibition of BCRP in vitro [2]: strongly inhibits; also recorded: strong inhibition
- Dose proportionality of exposure (AUC) ([3]; across the evaluated dose range): increased more than the dose proportionally
- Effect of food consumption on C max ([3]; preliminary work, ref not given): reduced
- Tolerability ([3]; single and multiple ascending doses, healthy volunteers): well tolerated

SMILES: CN(Cc1cnc2nc(N)nc(N)c2n1)c1ccc(C(=O)N[C@@H](CCC(=O)O)C(=O)O)cc1 [MTX, methotrexate, reference compound]
- AUC0–t, geometric LS mean (95% CI) [1, 7]: 583 (523, 649) ng.h/mL
- Time after which plasma concentrations fell below the LLOQ ([1]; MTX 7.5 mg, LLOQ 5 ng/mL): 12 h
- Intra‐participant variability of AUC0–∞ and C max [1]: 10–22%
- AUC(0-t) ([1]; human, plasma, oral, 7.5 mg, AUC0–t, geometric LS mean (95% CI), MTX 7.5 mg alone, Day 1 (n = 15)): 0.627 µg·h/mL
- AUC(0-inf) ([1]; human, plasma, oral, 7.5 mg, geometric LS mean (95% CI), MTX 7.5 mg alone, Day 1 (n = 13)): 0.677 µg·h/mL
- AUC(0-inf) ([1]; human, plasma, oral, geometric LS mean (95% CI), GLPG3970 350 mg + MTX 7.5 mg, Day 5 (n = 12)): 0.614 µg·h/mL
- Cmax ([1]; human, plasma, oral, C max, geometric LS mean (95% CI), GLPG3970 350 mg + MTX 7.5 mg, Day 5 (n = 14)): 193 ng/mL
- fraction of dose metabolized in the liver [4]: Approximately 10%
- mean t 1/2 [4]: 3 to 10 h
- bioavailability ([4]; oral dosing): ~ 60%
- excreted unchanged in urine ([4]; within 24 hours): 80–90%

SMILES: Nc1ccc(S(=O)(=O)Nc2ccccn2)cc1 [SPD, sulfapyridine]
- mean plasma t 1/2 ([4]; fast acetylation phenotype (NAT2)): 10.4 h
- mean plasma t 1/2 ([4]; slow acetylation phenotype (NAT2)): 14.8 h
- AUC0–t, geometric LS mean ratio (90% CI) [5, 9]: 90 (81, 100) %
- AUC0–∞, geometric LS mean ratio (90% CI) [5, 9]: 90 (81, 101) %
- C max, geometric LS mean ratio (90% CI) [5, 9]: 90 (78, 102) %
- AUC0–t, geometric LS mean ratio (90% CI) [5, 10]: 89 (80, 99) %
- AUC0–∞, geometric LS mean ratio (90% CI) [5, 10]: 89 (80, 100) %
- C max, geometric LS mean ratio (90% CI) [5, 10]: 94 (82, 107) %
- Effect of GLPG3970 on SPD exposure ([5]; SSZ with GLPG3970 (simultaneously or 2 h before) vs. SSZ alone): similar; also recorded: no relevant effect
- AUC(0-t) [5, 11]: 119 µg·h/mL
- AUC(0-inf) [5, 11]: 125 µg·h/mL
- Cmax [5, 11]: 5680 ng/mL
- AUC(0-t) [5, 12]: 106 µg·h/mL
- AUC(0-t) [5, 13]: 107 µg·h/mL
- AUC(0-inf) [5, 12]: 112 µg·h/mL
- AUC(0-inf) [5, 13]: 113 µg·h/mL
- Cmax [5, 12]: 5310 ng/mL
- Cmax [5, 13]: 5090 ng/mL

SMILES: O=C(O)c1cc(/N=N/c2ccc(S(=O)(=O)Nc3ccccn3)cc2)ccc1O [SSZ, sulfasalazine, reference compound]
- Time at which systemic concentrations are detectable post‐dosing ([4]; oral, literature, ref not given): ~ 1.5 hours
- t max ([4]; post‐dosing, oral SSZ, literature, ref not given): 3 to 12 h
- AUC(0-t) [5, 11]: 59.3 µg·h/mL
- AUC(0-inf) [5, 11]: 59.8 µg·h/mL
- Cmax [5, 11]: 7270 ng/mL
- AUC(0-t) [5, 12]: 109 µg·h/mL
- AUC(0-t) [5, 13]: 108 µg·h/mL
- AUC(0-inf) [5, 12]: 110 µg·h/mL
- AUC(0-inf) [5, 13]: 109 µg·h/mL
- Cmax [5, 12]: 13100 ng/mL
- Cmax [5, 13]: 12000 ng/mL
